Here are results for eleven compounds from US7786141B2 (Vertex Pharmaceuticals Incorporated, priority 2004, dated 2010).

Assay [1] deals with T1, M1 muscarinic receptor (Homo sapiens, UniProt P11229).
T1 construct: expressed in transfected cells; host or cells: CHO (M1-CHO)
T1 sequence (P11229 1-460): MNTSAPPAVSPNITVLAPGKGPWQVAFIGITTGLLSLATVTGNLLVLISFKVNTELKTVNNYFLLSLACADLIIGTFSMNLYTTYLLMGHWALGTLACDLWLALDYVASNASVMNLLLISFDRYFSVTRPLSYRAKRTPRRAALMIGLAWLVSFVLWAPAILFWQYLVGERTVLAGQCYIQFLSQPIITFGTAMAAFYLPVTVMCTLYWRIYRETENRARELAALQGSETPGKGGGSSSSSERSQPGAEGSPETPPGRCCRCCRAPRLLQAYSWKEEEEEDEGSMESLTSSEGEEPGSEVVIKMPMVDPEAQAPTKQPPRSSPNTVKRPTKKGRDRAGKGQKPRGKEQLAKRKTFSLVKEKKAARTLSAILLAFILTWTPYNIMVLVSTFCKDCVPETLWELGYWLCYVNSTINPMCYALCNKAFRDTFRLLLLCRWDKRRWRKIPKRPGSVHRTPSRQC
The experiment in a line: Functional mobilization of intracellular calcium (FLIPR) in M1-CHO cells. It counts as cell-based. The conditions noted are these: M1 receptor, calcium mobilization; for Emax: read-out: M1 Efficacy. Put shortly: (§1)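 Steps: seed M1- or M4-CHO cells 18-24 hrs ahead; load calcium dye with 1 mM probenecid; add test compound (0.5% DMSO final), either alone for agonism or 15 min before EC80 carbachol for inhibition; record FLIPR fluorescence for 60 sec.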

In assay [2] the target is T2, M4 muscarinic receptor (Homo sapiens, UniProt P08173).
T2 construct: expressed in transfected cells; host or cells: CHO (M4-CHO)
T2 sequence (P08173 1-479): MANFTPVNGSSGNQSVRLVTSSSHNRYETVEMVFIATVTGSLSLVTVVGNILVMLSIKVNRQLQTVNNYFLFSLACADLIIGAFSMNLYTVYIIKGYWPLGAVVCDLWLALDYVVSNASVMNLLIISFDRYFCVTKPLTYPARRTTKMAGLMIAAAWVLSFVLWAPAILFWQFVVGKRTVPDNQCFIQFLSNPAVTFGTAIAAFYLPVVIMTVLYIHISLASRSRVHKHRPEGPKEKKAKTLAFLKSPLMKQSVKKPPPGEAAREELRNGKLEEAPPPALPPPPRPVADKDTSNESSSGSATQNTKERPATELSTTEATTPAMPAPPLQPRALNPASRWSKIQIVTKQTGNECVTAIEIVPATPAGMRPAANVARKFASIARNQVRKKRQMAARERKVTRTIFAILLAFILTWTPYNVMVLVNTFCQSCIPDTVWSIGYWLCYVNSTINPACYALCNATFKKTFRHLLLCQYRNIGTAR
In words: Functional mobilization of intracellular calcium (FLIPR) in M4-CHO cells. It counts as cell-based. To be noted: M4 receptor, calcium mobilization; for Emax: read-out: M4 Efficacy. Put shortly: as §1

Molecules are shown by their SMILES.

On to `CC(=O)N1CC2(CCN(C3CCC[C@@H](C)C3)CC2)c2cc(F)ccc21` (some centres unmarked) [compound 240], for which, in assay [1], the “M1 Activity” value is “xx (activity was measured to be between 0.1 μM and 1.0 μM)”; the Emax lay in the range of 65 to 85%. Further, in assay [2], the “M4 Activity” value is recorded as “x (activity was measured to be greater than 1.0 μM)” and the Emax is over 85%.

As to `Cc1ccc2c(c1)C1(CCN(CC3CCC4CCC3C4)CC1)CN2` (centres unmarked) [compound 241], in assay [1], the “M1 Activity” value is “xx (activity was measured to be between 0.1 μM and 1.0 μM)”; the Emax is under 65%. Moreover, in assay [2], the “M4 Activity” value was “x (activity was measured to be greater than 1.0 μM)” and the Emax is over 85%.

With `O=C1CC2(CCN(C3CCCCCC3)CC2)c2ccccc2N1` [compound 242], in assay [1], the “M1 Activity” value is given as “xxx (activity was measured to be less than 0.1 μM)” and the Emax was in the range of 65 to 85%. Moreover, in assay [2], the “M4 Activity” value is “xx (activity was measured to be between 0.1 μM and 1.0 μM)”; the Emax is over 85%.

As for `O=C(O[C@@H]1CCOC1)N1CC2(CCN(C3CC4CCC(C3)N4C(=O)O[C@@H]3CCOC3)CC2)c2cc(F)ccc21` (some centres unmarked) [compound 243], in assay [1], the “M1 Activity” value is given as “xxx (activity was measured to be less than 0.1 μM)”; the “M1 Efficacy” value was “xx (efficacy was calculated to be between 85% and 65%)”. Further, in assay [2], the “M4 Activity” value was “x (activity was measured to be greater than 1.0 μM)”; the “M4 Efficacy” value is “xx (efficacy was calculated to be between 85% and 65%)”.

Regarding `c1ccc2c(c1)NCC21CCN(C2CCC3CCC2C3)CC1` (centres unmarked) [compound 244], in assay [1], the “M1 Activity” value is “xx (activity was measured to be between 0.1 μM and 1.0 μM)”; the Emax lay in the range of 65 to 85%. Moreover, in assay [2], the “M4 Activity” value is listed as “x (activity was measured to be greater than 1.0 μM)” and the Emax lay within 65 to 85%.

With `CCOC(=O)N1CCC(N2CCC3(CC2)CN(C(C)=O)c2ccc(C4CC4)cc23)CC1` [compound 245], in assay [1], the “M1 Activity” value is “xx (activity was measured to be between 0.1 μM and 1.0 μM)”; the Emax was under 65%. In assay [2], the “M4 Activity” value was “xx (activity was measured to be between 0.1 μM and 1.0 μM)”; the Emax is over 85%.

`CC(C)C(=O)N(C)[C@H]1CC2(CCN(C[C@H]3C[C@H]4CC[C@H]3C4)CC2)c2ccccc21` [compound 246]: in assay [1], the “M1 Activity” value is “xx (activity was measured to be between 0.1 μM and 1.0 μM)”; the Emax is under 65%. For the same compound, in assay [2], the “M4 Activity” value is “xx (activity was measured to be between 0.1 μM and 1.0 μM)”; the Emax is over 85%.

As for `CC(C)(C)COC(=O)N1C2CCC1CC(N1CCC3(CC1)COc1ccc(F)cc13)C2` (centres unmarked) [compound 247], in assay [1], the “M1 Activity” value is “xx (activity was measured to be between 0.1 μM and 1.0 μM)”; the Emax was in the range of 65 to 85%. Also, in assay [2], the “M4 Activity” value is given as “x (activity was measured to be greater than 1.0 μM)” and the Emax is over 85%.

With `CC(=O)N1CC2(CCN(C3CCCCCCC3)CC2)c2cc(F)ccc21` [compound 248], in assay [1], the “M1 Activity” value was “xx (activity was measured to be between 0.1 μM and 1.0 μM)”; the Emax lay in the range of 65 to 85%. For the same compound, in assay [2], the “M4 Activity” value was “x (activity was measured to be greater than 1.0 μM)” and the Emax was under 65%.

For `CCOC(=O)N1CCC(N2CCC3(CC2)CN(CC(C)=O)c2ccc(F)cc23)CC1` [compound 249], in assay [1], the “M1 Activity” value was “x (activity was measured to be greater than 1.0 μM)” and the Emax is 65 to 85%. Also, in assay [2], the “M4 Activity” value is “x (activity was measured to be greater than 1.0 μM)” and the Emax is 65 to 85%.

For the compound `CCOC(=O)N1CCC(CN2CCC3(CC2)C[C@H](NC(C)=O)c2ccccc23)CC1` [compound 250], in assay [1], the “M1 Activity” value was “xx (activity was measured to be between 0.1 μM and 1.0 μM)”; the Emax fell in the range of 65 to 85%. In assay [2], the “M4 Activity” value is on record as “x (activity was measured to be greater than 1.0 μM)” and the Emax lay within 65 to 85%.
